# Data as given in publication PMC10026764, “Overcoming the imatinib-resistant BCR-ABL mutants with new ureidobenzothiazole chemotypes endowed with potent and broad-spectrum anticancer activity” (Journal of Enzyme Inhibition and Medicinal Chemistry, 2023).
# Tests used:
# [1] = target: ABL^F317I (Homo sapiens, UniProt P00519, F317I); assay: In vitro enzymatic activity, imatinib-resistant mutant panel; format: biochemical
# [2] = target: ABL^H396P (Homo sapiens, UniProt P00519, H396P); assay: as above; format: biochemical
# [3] = target: ABL^M351T (Homo sapiens, UniProt P00519, M351T); assay: as above; format: biochemical
# [4] = target: DDR1 (Homo sapiens, UniProt Q08345); assay: Kinase selectivity test against DDR1; format: biochemical
# Procedure: On the other hand, to gain certain insights about the kinase selectivity of this array of ureidobenzothiazoles, compounds 2a and 2b were tested against DDR1 (Figure 4). Discoidin domain receptors (DDR1/2) are transmembrane receptor tyrosine kinases (RTKs), activated by fibrillar collagens. DDR1/2 and BCR-ABL share almost 61% sequence similarities in their ATP binding domains. […] This observation points out the merit of these ureidobenzothiazoles over the known BCR-ABL inhibitors in achieving exceptional selectivity towards BCR-ABL.
# [5] = test system: EKVX; assay: NCI-60 five-dose SRB assay; format: cell-based; conditions: Homo sapiens, non-small cell lung cancer
# [6] = test system: NCI 60-cell line panel; set-up: method as in earlier work; conditions: COLO205, HCC-2998, HCT-116 and HCT-15 colon cancer cells; cited from earlier work
# [7] = test system: CCRF-CEM; set-up: method as in earlier work; conditions: imatinib mesylate NSC 743414, NCI data; cited from earlier work
# [8] = test system: HL-60(TB); set-up: method as in earlier work; conditions: imatinib mesylate NSC 743414, NCI data; cited from earlier work
# [9] = test system: K-562; set-up: method as in earlier work; conditions: imatinib mesylate NSC 743414, NCI data; cited from earlier work
# [10] = test system: SR; set-up: method as in earlier work; conditions: imatinib mesylate NSC 743414, NCI data; cited from earlier work
# [11] = test system: A549/ATCC; set-up: method as in earlier work; conditions: imatinib mesylate NSC 743414, NCI data; cited from earlier work
# [12] = test system: HOP-62; set-up: method as in earlier work; conditions: imatinib mesylate NSC 743414, NCI data; cited from earlier work
# [13] = test system: HOP-92; set-up: method as in earlier work; conditions: imatinib mesylate NSC 743414, NCI data; cited from earlier work
# [14] = test system: NCI-H23; set-up: method as in earlier work; conditions: imatinib mesylate NSC 743414, NCI data; cited from earlier work
# [15] = test system: NCI-H322M; set-up: method as in earlier work; conditions: imatinib mesylate NSC 743414, NCI data; cited from earlier work
# [16] = test system: NCI-H460; set-up: method as in earlier work; conditions: imatinib mesylate NSC 743414, NCI data; cited from earlier work
# [17] = test system: NCI-H522; set-up: method as in earlier work; conditions: imatinib mesylate NSC 743414, NCI data; cited from earlier work
# [18] = test system: COLO 205; set-up: method as in earlier work; conditions: imatinib mesylate NSC 743414, NCI data; cited from earlier work
# [19] = test system: HCC-2998; set-up: method as in earlier work; conditions: imatinib mesylate NSC 743414, NCI data; cited from earlier work
# [20] = test system: HCT-116; set-up: method as in earlier work; conditions: imatinib mesylate NSC 743414, NCI data; cited from earlier work
# [21] = test system: KM12; set-up: method as in earlier work; conditions: imatinib mesylate NSC 743414, NCI data; cited from earlier work
# [22] = test system: SW-620; set-up: method as in earlier work; conditions: imatinib mesylate NSC 743414, NCI data; cited from earlier work
# [23] = test system: SF-295; set-up: method as in earlier work; conditions: imatinib mesylate NSC 743414, NCI data; cited from earlier work
# [24] = test system: SNB-19; set-up: method as in earlier work; conditions: imatinib mesylate NSC 743414, NCI data; cited from earlier work
# [25] = test system: U251; set-up: method as in earlier work; conditions: imatinib mesylate NSC 743414, NCI data; cited from earlier work
# [26] = test system: LOX IMVI; set-up: method as in earlier work; conditions: imatinib mesylate NSC 743414, NCI data; cited from earlier work
# [27] = test system: M14; set-up: method as in earlier work; conditions: imatinib mesylate NSC 743414, NCI data; cited from earlier work
# [28] = test system: MDA-MB-435; set-up: method as in earlier work; conditions: imatinib mesylate NSC 743414, NCI data; cited from earlier work
# [29] = test system: SK-MEL-2; set-up: method as in earlier work; conditions: imatinib mesylate NSC 743414, NCI data; cited from earlier work
# [30] = test system: SK-MEL-28; set-up: method as in earlier work; conditions: imatinib mesylate NSC 743414, NCI data; cited from earlier work
# [31] = test system: SK-MEL-5; set-up: method as in earlier work; conditions: imatinib mesylate NSC 743414, NCI data; cited from earlier work
# [32] = test system: UACC-62; set-up: method as in earlier work; conditions: imatinib mesylate NSC 743414, NCI data; cited from earlier work
# [33] = test system: IGROV1; set-up: method as in earlier work; conditions: imatinib mesylate NSC 743414, NCI data; cited from earlier work
# [34] = test system: OVCAR-4; set-up: method as in earlier work; conditions: imatinib mesylate NSC 743414, NCI data; cited from earlier work
# [35] = test system: OVCAR-5; set-up: method as in earlier work; conditions: imatinib mesylate NSC 743414, NCI data; cited from earlier work
# [36] = test system: OVCAR-8; set-up: method as in earlier work; conditions: imatinib mesylate NSC 743414, NCI data; cited from earlier work
# [37] = test system: NCI/ADR-RES; set-up: method as in earlier work; conditions: imatinib mesylate NSC 743414, NCI data; cited from earlier work
# [38] = test system: SK-OV-3; set-up: method as in earlier work; conditions: imatinib mesylate NSC 743414, NCI data; cited from earlier work
# [39] = test system: ACHN; set-up: method as in earlier work; conditions: imatinib mesylate NSC 743414, NCI data; cited from earlier work
# [40] = test system: CAKI-1; set-up: method as in earlier work; conditions: imatinib mesylate NSC 743414, NCI data; cited from earlier work
# [41] = test system: SN12C; set-up: method as in earlier work; conditions: imatinib mesylate NSC 743414, NCI data; cited from earlier work
# [42] = test system: UO-31; set-up: method as in earlier work; conditions: imatinib mesylate NSC 743414, NCI data; cited from earlier work
# [43] = test system: PC-3; set-up: method as in earlier work; conditions: imatinib mesylate NSC 743414, NCI data; cited from earlier work
# [44] = test system: DU-145; set-up: method as in earlier work; conditions: imatinib mesylate NSC 743414, NCI data; cited from earlier work
# [45] = test system: MCF7; set-up: method as in earlier work; conditions: imatinib mesylate NSC 743414, NCI data; cited from earlier work
# Sequence of DDR1 (Q08345 19-913, species assumed): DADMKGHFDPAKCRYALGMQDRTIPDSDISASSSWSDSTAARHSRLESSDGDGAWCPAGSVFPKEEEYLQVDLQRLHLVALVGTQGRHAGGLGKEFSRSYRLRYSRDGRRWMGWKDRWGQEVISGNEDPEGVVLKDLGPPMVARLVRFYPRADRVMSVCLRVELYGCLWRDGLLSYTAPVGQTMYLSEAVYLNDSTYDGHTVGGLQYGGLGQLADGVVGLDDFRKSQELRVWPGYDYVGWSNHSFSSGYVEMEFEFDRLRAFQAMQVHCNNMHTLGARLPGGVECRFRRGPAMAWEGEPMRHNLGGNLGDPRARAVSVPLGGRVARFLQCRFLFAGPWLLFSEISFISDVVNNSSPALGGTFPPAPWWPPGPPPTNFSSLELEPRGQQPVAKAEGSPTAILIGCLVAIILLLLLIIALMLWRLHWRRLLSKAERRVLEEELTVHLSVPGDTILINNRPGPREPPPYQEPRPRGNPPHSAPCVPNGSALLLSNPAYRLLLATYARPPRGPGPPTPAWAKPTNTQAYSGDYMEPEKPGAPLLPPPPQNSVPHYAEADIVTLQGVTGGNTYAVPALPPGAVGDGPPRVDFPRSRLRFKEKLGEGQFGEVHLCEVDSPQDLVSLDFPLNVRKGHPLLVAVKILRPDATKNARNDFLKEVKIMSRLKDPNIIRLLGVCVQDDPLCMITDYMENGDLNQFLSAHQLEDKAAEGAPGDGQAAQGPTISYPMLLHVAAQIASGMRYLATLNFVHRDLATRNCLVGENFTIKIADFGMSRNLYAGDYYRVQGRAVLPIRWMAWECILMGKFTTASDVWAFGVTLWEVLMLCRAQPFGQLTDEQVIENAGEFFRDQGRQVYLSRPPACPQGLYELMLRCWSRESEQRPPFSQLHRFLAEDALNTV
compound,measurement,setting,value
CCN1CCN(c2ccc(NC(=O)Nc3nc4ccc(-c5ccccc5OC)cc4s3)cc2)CC1 [Compound 2b],IC50,[1],0.00516 µM
same,IC50,[2],< 0.001 µM
same,IC50,[3],0.00106 µM
same,IC50,[4],0.199 µM
same,GI50,[5],1.51 µM
Cc1ccc(NC(=O)c2ccc(CN3CCN(C)CC3)cc2)cc1Nc1nccc(-c2cccnc2)n1 [Imatinib],GI50,[6],12.6 to 21.2 µM
same,GI50,[7],17 µM
same,GI50,[8],13.5 µM
same,GI50,[9],0.02 µM
same,GI50,[10],7.14 µM
same,GI50,[11],24.5 µM
same,GI50,[12],21.5 µM
same,GI50,[13],13.3 µM
same,GI50,[14],15 µM
same,GI50,[15],22.8 µM
same,GI50,[16],16.2 µM
same,GI50,[17],16.4 µM
same,GI50,[18],17.6 µM
same,GI50,[19],21.2 µM
same,GI50,[20],12.6 µM
same,GI50,[21],18.8 µM
same,GI50,[22],23.4 µM
same,GI50,[23],19.8 µM
same,GI50,[24],38.6 µM
same,GI50,[25],18 µM
same,GI50,[26],18.1 µM
same,GI50,[27],19.3 µM
same,GI50,[28],17.9 µM
same,GI50,[29],25 µM
same,GI50,[30],14.6 µM
same,GI50,[31],12.1 µM
same,GI50,[32],19 µM
same,GI50,[33],21.2 µM
same,GI50,[34],20 µM
same,GI50,[35],0.58 µM
same,GI50,[36],27.7 µM
same,GI50,[37],23 µM
same,GI50,[38],28.9 µM
same,GI50,[39],25.2 µM
same,GI50,[40],34 µM
same,GI50,[41],33.2 µM
same,GI50,[42],22.3 µM
same,GI50,[43],21.4 µM
same,GI50,[44],18.8 µM
same,GI50,[45],18.2 µM
